This is an account of results in patent US4879421A, “Method for preparing optically active binaphthol and spiroibiindanol” (General Electric Company, priority 1988, dated 1989).

Each structure is given as a SMILES string.

The target of the assay is T1, cholesterol esterase (Bos taurus, UniProt P30122).
T1 construct: assayed with taurocholate in ether/phosphate emulsion
T1 sequence (P30122 19-597): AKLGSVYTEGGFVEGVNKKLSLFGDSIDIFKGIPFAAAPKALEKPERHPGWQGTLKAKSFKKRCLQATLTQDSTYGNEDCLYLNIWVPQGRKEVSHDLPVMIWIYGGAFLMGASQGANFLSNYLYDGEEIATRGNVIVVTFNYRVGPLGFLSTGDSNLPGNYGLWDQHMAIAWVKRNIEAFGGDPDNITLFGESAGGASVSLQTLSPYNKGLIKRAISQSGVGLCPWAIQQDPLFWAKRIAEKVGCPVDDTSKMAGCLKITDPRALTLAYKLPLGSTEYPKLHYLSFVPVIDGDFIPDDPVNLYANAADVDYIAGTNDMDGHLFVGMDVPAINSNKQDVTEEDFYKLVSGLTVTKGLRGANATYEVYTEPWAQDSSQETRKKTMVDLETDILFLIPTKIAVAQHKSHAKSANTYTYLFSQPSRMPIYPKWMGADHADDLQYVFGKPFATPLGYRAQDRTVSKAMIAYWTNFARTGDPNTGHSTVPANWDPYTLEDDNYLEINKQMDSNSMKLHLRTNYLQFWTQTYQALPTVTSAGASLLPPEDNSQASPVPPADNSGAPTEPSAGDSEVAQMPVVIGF
In words: Cholesterol esterase catalyzed hydrolysis of esters, relative rate by pH stat. The assay is classed as biochemical. Particulars: commercial cholesterol esterase, 0.1 N NaOH to hold pH 7.0, emulsion of ester (1.0 mmol) in ethyl ether (10 mL) and 10 mM phosphate buffer pH 7.0 with 30 mg sodium taurocholate. Here is the method: In similar manner as Example 2 commercial samples of cholesterol esterase are shown to catalyze the enantiospecific hydrolysis of diesters of 1,1'-bi-2-naphthol listed in the following Table.
^(a) The relative rate of hydrolysis is measured using a pH stat whic
measures the amount of base (0.1 N NaOH) required to maintain the pH at
7.0 for an emulsion of ester (1.0 mmol) dissolved in ethyl ether (10
milliliter) and aqueous buffer (10 milliliters of 10 mM phosphate, pH 7.0
containing 30 milligrams sodium taurocholate).

Take `CCC(=O)Oc1ccc2ccccc2c1-c1c(OC(=O)CC)ccc2ccccc12`: the “Relative Rate (relative rate of hydrolysis)” value (“Relative Rate” for short) stood at 1.1.
The figure for `CCCC(=O)Oc1ccc2ccccc2c1-c1c(OC(=O)CCC)ccc2ccccc12` [Butyrate] is 0.5; for `CC(=O)Oc1ccc2ccccc2c1-c1c(OC(C)=O)ccc2ccccc12` [acetate] it is 1.1.
Consider `CCCCCC(=O)Oc1ccc2ccccc2c1-c1c(OC(=O)CCCCC)ccc2ccccc12` [hexanoate], for which the “Relative Rate” value stood at 0.5.
As to `CCCCCCCC(=O)Oc1ccc2ccccc2c1-c1c(OC(=O)CCCCCCC)ccc2ccccc12` [octanoate], the “Relative Rate” value turned out to be 0.4.
With `CC(=O)O[C@H]1CC[C@@]2(C)C(=CC[C@H]3[C@@H]4CC[C@H]([C@H](C)CCCC(C)C)[C@@]4(C)CC[C@@H]32)C1` [reference compound], the “Relative Rate” value came to 1.0.
